Data set [1] has as its system FL5.12 cells. In words: Survival of shRNA-infected FL5.12 cells after IL-3 withdrawal (flow cytometry, GFP/PI). The note with it: 15 hours into second IL-3 withdrawal, after 1 round of withdrawal and recovery; 6 independent infections; p<0.0001, Student's t-test. It counts as cell-based, murine. As to the method: High-titer retrovirus was generated by co-transfecting 293T cells with retroviral vector and pCL-Eco, which encodes both ecotropic envelope and gag-pol proteins, using an Effectene® transfection kit (Qiagen). Culture supernatant was harvested each day from 24-72 hours after transfection and used either to infect FL5.12 cells or frozen at ^−80° C. for future use. 1-2 million cells were seeded in each well of a 24-well plate and were centrifuged at 2500×g for 1 hour with viral supernatant, 5 μg/ml polybrene, and 0.3 ng/ml interleukin-3 (IL-3). Cells were stored in the incubator for 2 hours. Viral supernatant was replaced with fresh batches, and the spin/incubation process was repeated 2 more times. Infection efficiency was determined 24-48 hours later by flow cytometric analysis of GFP expression.
The murine pro-B cell line FL5.12 is IL-3 dependent; 100% of the cells die by apoptosis after IL-3 withdrawal for 3 days, and >90% of cells can be rescued by expression of Bcl-xL59. […]
10 shRNA-encoding sequences (“books”) were retrieved by PCR, cloned back into pSiren, and sequenced. […] After 15 hours, cells were analyzed by flow cytometry, identifying infected cells by GFP fluorescence and dead cells by propidium iodide (PI) staining. […]
In general terms: In flow cytometry, cells or beads pass a laser one at a time.

Data set [2] relates to FL5.12 cells. In words: Growth rate of book-infected FL5.12 cells. It is filed as cell-based, murine. The procedure: (§1) 10 shRNA-encoding sequences (“books”) were retrieved by PCR, cloned back into pSiren, and sequenced. Of the 10, two were the same (books 1 and 7), indicating selective enrichment. FL5.12 cells were infected with 3 of the putative shRNA molecules separately (books 1, 3, and 8), each one assayed in 6 independent infections. The cells were subjected to 1 round of IL-3 withdrawal and recovery and subjected to a second withdrawal from IL-3. After 15 hours, cells were analyzed by flow cytometry, identifying infected cells by GFP fluorescence and dead cells by propidium iodide (PI) staining. Fractions of GFP-positive (infected), PI-negative (live) cells relative to the start of the experiment (just prior to the first IL-3 withdrawal) are depicted in FIG. 16. […] The improved survival with books 1 and 3 correlated with a decrease in caspase 3 enzymatic activity. Because the cycling of IL-3 withdrawal included a recovery segment, books 1 and 3 were tested for effects on growth rate and none were seen. The stem sequences of books 1 and 3 are as follows: […]

The subject of a further data set is caspase 3. In words: Caspase 3 enzymatic activity in book-infected FL5.12 cells. As to conditions: correlated with the improved survival after IL-3 withdrawal. It is filed as cell-based, murine. The procedure: as §1
The subject of data set [3] is primary FRDA fibroblasts. The note with it: 0.05 mM BSO; Jauslin et al. 2002; cited from earlier work.
Data set [4] deals with normal control fibroblasts. Nature of the data set: Glutathione depletion with BSO: viability of normal control fibroblasts. The note with it: 1 mM BSO in media with 0.3 mg/ml fully saturated human transferrin; 48 hours. It is filed as cell-based. As to the method:
(§2) Primary FRDA fibroblasts are far more sensitive to oxidative stress than normal control fibroblasts. (Jauslin et al. (Hum Molec Gen 11: 3055, 2002) used L-buthionine (S,R)-sulfoximine (BSO) to block the rate-limiting enzyme in glutathione synthesis, and found a concentration (0.05 mM) at which virtually all primary FRDA fibroblasts lose viability, but more than 90% of normal control fibroblasts retain viability.)
(§3) […] […] By washing the cells, adding back their normal medium, and looking for colony formation, the minimum conditions under which 100% of the cells die were confirmed.

Data set [5] deals with primary FRDA fibroblasts. In words: Glutathione depletion with BSO: viability of primary FRDA fibroblasts. It is filed as cell-based. As to conditions: 1 mM BSO in media with 0.3 mg/ml fully saturated human transferrin; 48 hours; 6-well plate. As to the method:
as §2, §3

Data set [6] relates to normal control fibroblasts. The note with it: 0.05 mM BSO; Jauslin et al. 2002; cited from earlier work.
A further data set concerns 293T cells. Nature of the data set: Overnight CDDO treatment of 293T cells, to establish an apoptosis assay. It counts as cell-based, human. The note with it: for adherent cells remaining after treatment: then medium without CDDO. The procedure:
293T cells (a human, embryonic kidney cell line) were treated overnight (16 hours) with 2, 4, 6, and 8 μM of the synthetic triterpenoid, CDDO.

In the case of “5′-GGGTAGCTACATTTGCATATGTGGATATG-3′ (listed as DNA, chemistry not given here) [Book 1, books 1 and 7 were the same]”, the “survival (GFP-positive, PI-negative cells) relative to random book (ctr153) or vector alone (pSiren)” value with FL5.12 cells [1] is reported as “statistically significant improvement in survival”. In addition, the “effects on growth rate” value in the data set on FL5.12 cells [2] is recorded as “none”. In the data set on caspase 3, the “caspase 3 enzymatic activity” value is “decrease”.

Turning to “5′-GTGGATCAGTGTGTTATAGCTCGGGCAGG-3′ (listed as DNA, chemistry not given here) [Book 3]”, the “survival (GFP-positive, PI-negative cells) relative to random book (ctr153) or vector alone (pSiren)” value in the data set with FL5.12 cells [1] is listed as “statistically significant improvement in survival”. In addition, in the data set with FL5.12 cells [2], the “effects on growth rate” value is recorded as “none”. The “caspase 3 enzymatic activity” value in the data set with caspase 3 was “decrease”.

Take `CCCCS(=N)(=O)CCC(N)C(=O)O` [BSO, L-buthionine (S,R)-sulfoximine]: the “primary FRDA fibroblasts losing viability” value with primary FRDA fibroblasts [3] was “virtually all”. For the same molecule, in data set [4], the “age- and passage-matched controls remaining viable” value was “majority”. Further, the “viability of FRDA cells” value in the data set on primary FRDA fibroblasts [5] is recorded as “all the cells in a 6-well plate nonviable”. In data set [6], the “normal control fibroblasts retaining viability” value is “more than 90%”.

In the case of `CC1(C)CC[C@]2(C(=O)O)CC[C@]3(C)[C@H](C(=O)C=C4[C@@]5(C)C=C(C#N)C(=O)C(C)(C)[C@@H]5CC[C@]43C)[C@@H]2C1` [CDDO], the “adherent cells remaining after treatment” value with 293T cells (2 μM CDDO overnight (16 hours)) is on record as “some adherent cells”; in the data set with 293T cells (4 μM CDDO overnight (16 hours)), “no remaining adherent cells”; with 293T cells (6 μM CDDO overnight (16 hours)) it was “no remaining adherent cells”; in the data set with 293T cells (8 μM CDDO overnight (16 hours)), “no remaining adherent cells”. Further, the “adherent colonies after post-treatment culture” value in the data set on 293T cells (repeat with 4 μM CDDO, five days of post-treatment culture in medium without CDDO) is reported as “no adherent colonies were evident”.

Source of the values: patent US9982256B2, “Random RNAi libraries, methods of generating same, and screening methods utilizing same” (The Trustees of the University of Pennsylvania, priority 2006, dated 2018).
